{
  "source": "patent US20240091210A1",
  "about": "“USE OF 5-[[4-[2-[5-ACETYLPYRIDIN-2-YL]ETHOXY]BENZYL]-1,3-THIAZOLIDINE-2,4-DIONE AND ITS SALTS” (Minoryx Therapeutics S.L., priority 2018, published 2024)",
  "key": {"[1]": {"experiment": "Plasma pharmacokinetics in mice after single oral 50 mg/kg M-III", "format": "in vivo", "settings": "male C57BL/6 mice", "description": "(§1) To the plasma pharmacokinetics of 5-[[4-[2-[5-acetylpyridin-2-yl]ethoxy]phenyl]methyl]-1,3-thiazolidine-2,4-dione (M-III) and 5-[[4-[2-[5-(1-hydroxyethyl)pyridin-2-yl]ethoxy]phenyl]methyl]-1,3-thiazolidine-2,4-dione (M-IV) were determined in male C57BL/6 mice following a single oral (50 mg/kg) dose administration of M-III.\nNine animals were administered orally with suspension formulation of M-III in 0.1% Tween 80 and 99.9% NaCMC in water (0.5% w/v) at 50 mg/kg dose. The dosing volume administered was 10 mL/kg. The blood samples were collected from set of three mice at each time point in labeled micro centrifuge tube containing K2EDTA solution as anticoagulant at Pre-dose, 0.25, 0.5, 1, 2, 4, 8, 12 and 24 hr. Plasma samples were separated by centrifugation of whole blood and stored below −70±10° C. until bioanalysis. All samples were processed for analysis by protein precipitation using acetonitrile and analyzed with fit-for-purpose LC-MS/MS method (LLOQ=2.46 ng/mL for M-III and 2.49 ng/mL for M-IV). Pharmacokinetic parameters were calculated using the non-compartmental analysis tool of Phoenix WinNonlin® (Version 6.3)."}, "[2]": {"experiment": "Plasma pharmacokinetics in mice after single oral 4.5 mg/kg M-III or MIN-102", "format": "in vivo, male C57BL/6 mice", "description": "as §1, with “The” for “To the”, “(4.5” for “(50”, “dose” for “dose administration”, “either M-III or MIN-102 (5-[[4-[2-[5-(1-hydroxyethyl)pyridin-2-yl]ethoxy]phenyl]methyl]-1,3-thiazolidine-2,4-dione hydrochloride).” for “M-III.”\nAnimals were administered orally with a suspension formulation of either M-III or MIN-102 in 0.1% Tween 80 and 99.9% NaCMC in water (0.5% w/v) at 4.5 mg/kg dose. The blood samples were collected from a set of three mice at each time point in labeled micro centrifuge tubes containing K2EDTA solution as anticoagulant at Pre-dose, 0.25, 0.5, 1, 2, 4, 8, 12 and 24 hr. Plasma samples were separated by centrifugation of whole blood and stored below −70±10° C. until bioanalysis. All samples were processed for analysis by protein precipitation using acetonitrile and analyzed with fit-for-purpose LC-MS/MS method (LLOQ=2.46 ng/mL for M-III and 2.49 ng/mL for M-IV). Pharmacokinetic parameters were calculated using the non-compartmental analysis tool of Phoenix WinNonlin® (Version 6.3)."}, "[3]": {"experiment": "Plasma pharmacokinetics in rats after single oral 10 mg/kg M-III or MIN-102", "format": "in vivo, male Sprague Dawley rats", "description": "(§2) The plasma pharmacokinetics of 5-[[4-[2-[5-acetylpyridin-2-yl]ethoxy]phenyl]methyl]-1,3-thiazolidine-2,4-dione (M-III; M3) and 5-[[4-[2-[5-(1-hydroxyethyl)pyridin-2-yl]ethoxy]phenyl]methyl]-1,3-thiazolidine-2,4-dione (M-IV; M4) were determined in male Sprague Dawley following a single oral (10 mg/kg) dose administration of either M-III or MIN-102.\nSix animals were dosed orally with a suspension formulation of either M-III or MIN-102 in 0.1% Tween 80 and 99.9% CMC (0.5% w/v solution in RO water) at 10 mg/kg.\nThe dosing volume administered was 10 mL/kg. Blood samples (approximately 60 μL) were collected from retro-orbital plexus of three rats at 0.08, 0.25, 0.5, 1, 2, 4, 8, 12 and 24 hr (IV) and at predose, 0.25, 0.5, 1, 2, 4, 8, 12 and 24 hr. Samples were collected into labeled micro-tubes, containing K2EDTA solution (20% K2EDTA solution) as an anticoagulant. Plasma was immediately harvested from the blood by centrifugation at 4000 rpm for 10 min at 4±2° C. and stored below −70° C. until bioanalysis.\nConcentrations of M-III and M-IV in rat plasma samples were determined by fit-for-purpose LC-MS/MS method. Non-Compartmental-Analysis module in Phoenix WinNonlin® (Version 6.3) was used to assess the pharmacokinetic parameters. Peak plasma concentrations (Cax) and time for the peak plasma concentrations (Tmax) were the observed values. The areas under the concentration time curve (AUClast and AUCinf) were calculated by linear trapezoidal rule."}, "[4]": {"experiment": "Plasma pharmacokinetics in dogs after single oral 3 mg/kg M3 or MIN-102", "format": "in vivo, male Beagle dogs", "description": "as §2, with “male Beagle dogs” for “male Sprague Dawley”, “oral (3” for “oral (10”, “either M3” for “either M-III”\nSix animals were dosed orally with a suspension formulation of either M-III or MIN-102 in 0.1% Tween 80 and 99.9% CMC (aqueous carboxymethylcellulose 0.5% w/v solution in RO water) at 3 mg/kg. Blood samples (0.5 ml) were collected from the saphenous or cephalic or jugular veins of dogs at predose, 0.5, 1, 2, 4, 6 and 24 hr. Samples were collected into labeled micro-tubes, containing K2EDTA solution (20% K2EDTA solution) as an anticoagulant. Plasma was immediately harvested from the blood by centrifugation at 4000 rpm for 10 min and stored below −70° C. until bioanalysis.\nConcentrations of M3 and M-IV in dog plasma samples were determined by fit-for-purpose LC-MS/MS method. Non-Compartmental-Analysis module in Phoenix WinNonlin® (Version 6.3) was used to assess the pharmacokinetic parameters. Peak plasma concentrations (Cmax) and time for the peak plasma concentrations (Tmax) were the […] observed values. The areas under the concentration time curve (AUClast and AUCinf) were calculated by linear trapezoidal rule."}, "MDR1": {"tested_on": "MDR1", "experiment": "MDCKII monolayer assay", "format": "in vitro ADME", "settings": "dog, MDCK; after 120 minutes, MDCKII-MDR1 and MDCKII-Mock; loss due to conversion to M-IV", "description": "The monolayer assays were performed using parental and MDR1 transfected MDCKII cell monolayers. MDCKII and MDCKII-MDR1 cells were cultured in Dulbecco's Modified Eagle's Medium with 4.5 g/L glucose (DMEM) supplemented with 10% (v/v) fetal bovine serum (FBS) at 37±1° C. in an atmosphere of 95:5 air:CO2 in cell culture flasks prior to seeding into 24-transwell inserts. Transfected and parental MDCKII cells were cultured on the inserts with 400 μL medium per well on the apical side and 25 mL in a single-well receiver tray for all 24 wells on the basolateral side, for 96 hours. Medium was changed 24 hours before the experiment. Trans-epithelial electric resistance (TEER) of each well was measured to confirm the confluency of the monolayers prior to the experiments. Permeability incubations were carried out in Hank's Buffered Salt Solution (HBSS) at 37±1° C. Apical to basolateral permeability of Lucifer yellow (LY) was assessed as a low permeability control and antipyrine was as a high permeability compound. […] LY samples were analyzed by measuring fluorescence with the following wavelengths: excitation—485 nm emission—520 nm, while the antipyrine samples were analyzed with LC-MS/MS.\nAs another follow-up, MDCKII-MDR1 substrate experiment was repeated at […] M-III. The amounts of M-III and M-IV were determined at the end of the incubation time. […]"}, "[5]": {"settings": "as described in WO 2015/150476 A1; cited from earlier work"}},
  "data": [
    {"compound": "CC(=O)c1ccc(CCOc2ccc(CC3SC(=O)NC3=O)cc2)nc1", "note": "(stereo not drawn) [M-III, 5-[[4-[2-[5-acetylpyridin-2-yl]ethoxy]phenyl]methyl]-1,3-thiazolidine-2,4-dione]", "values": [
      {"measurement": "share of total exposure (AUC)", "setting": "[1]", "value": "about 25%"},
      {"measurement": "share of total exposure (AUC)", "setting": "[2]; after single oral 4.5 mg/kg M-III, male mice", "value": "~27", "unit": "%"},
      {"measurement": "share of total exposure (AUC)", "setting": "[2]; after single oral 4.5 mg/kg MIN-102, male mice", "value": "about 38%"},
      {"measurement": "share of total exposure (AUC)", "setting": "[3]; after single oral 10 mg/kg M-III, male rats", "value": "~53", "unit": "%"},
      {"measurement": "share of total exposure (AUC)", "setting": "[3]; after single oral 10 mg/kg MIN-102, male rats", "value": "about 42%"},
      {"measurement": "share of total exposure (AUC)", "setting": "[4]; after single oral 3 mg/kg M3, male dogs", "value": "~16", "unit": "%"},
      {"measurement": "share of total exposure (AUC)", "setting": "[4]; after single oral 3 mg/kg MIN-102, male dogs", "value": "about 8%"},
      {"measurement": "recovery at 120 min", "setting": "MDR1", "value": "30 to 60", "unit": "%"},
      {"measurement": "blood-brain-barrier penetration", "setting": "[5]", "value": "does not penetrate the BBB"}
    ]}
  ]
}
